The experiment has as its target Factor XIa (Homo sapiens (Human), UniProt P03951). As to the kind of experiment: Factor XIa enzyme inhibition assay (dose response, fluorogenic AMC substrate). The following applies: read-out: hFXIa IC50. Type of experiment: biochemical. On the procedure: • Assay buffer: 20 mM Hepes, pH 7.4; 150 mM NaCl; 0.02% Tween 20 • Compounds: 10 mM stocks in DMSO • Substrate: 20 mM Glp-Pro-Arg-AMC, 25 mg/2.3 mL H2O (store at +4° C.) [Factor XIa, thrombin, and trypsin] • 20 mM Pro-Phe-Arg-AMC (Bachem I-1295), 25 mg/2.2 mL H2O • or Boc-Leu-Gly-Arg-AMC (Bachem I-1105), 25 mg/2.07 mL H2O • (store at +4° C.) [Factor Xa] • Enzyme: Factor XIa; 0.25 μM in 50% glycerol (20 μg/mL) • Trypsin; 0.2 μM in 50% glycerol (4.8 μg/mL) • Thrombin; 0.2 μM in 50% glycerol (7.34 μg/mL) • Factor Xa; 0.2 μM in 50% glycerol (9.2 μg/mL) • These stocks are aliquoted (˜100 μL/aliquot) and stored at −20° C. Methods: • 1. Dilute the substrate to 100 μM in assay buffer (30 μL/6 mL). The enzyme is diluted to 0.5 nM just prior to use (12 μL/6 mL for Factor XIa; 15 μL/6 mL for all of the rest.) • 2. Pipette 50 μL of substrate into each well of the 96 well (12×8) microtiter plate. (Column 1 is used as the 100% activity control and receives no compound, and Column 12 is the blank and receives no enzyme.) Add an additional 46 μL to column 2. • 3. Pipette 4 μL of each compound into the appropriate well in column 2 of the plate (unknowns assayed in triplicate, standard assayed in duplicate). The final compound concentration will be […] of the stock. • 4. Serially two-fold dilute the compound by mixing the sample in column 2, removing 50 μL to the next well (column 3), mix and remove to column 4, etc. until column 11. After mixing column 11, remove 50 μL and discard. • 5. Pipette 50 μL of buffer into column 12. Initiate the reaction by adding 50 μL of enzyme solution to each well of columns 1-11 as rapidly as possible. • 6. Read the plate in a spectrophotometer (SpectraMax) at 30° C., wherein each well is measured every 60 s for 30 min. For Factor Xa assays, each well is measured every 1 min for a total of 60 min. • 7. For Factor XIa assays, the compounds are assayed, in duplicate, at 3 different starting concentrations, 20, 2, and 0.2 μM; 1:10, 1:100, and 1:1000 dilution of 10 mM stock or at 2, 0.2, and 0.02 μM; 1:100, 1:1000, and 1:10,000 dilution of 10 mM stock. Data for each concentration are combined for graphing and data fitting. • 8. Data can be used both for estimation of IC50 and for estimation of Kon.
Potential inhibitors of Factor XIa were evaluated using the following assay.
PyroGlu-Pro-Arg-7-methylaminocourin (AMC), available from CPC Scientific, Inc., is based on the substrate pyro-Glu-Pro-Arg-pNA (S-2366), available from Diapharma Group, Inc. (Columbus, Ohio), wherein the p-nitroanaline group is replaced with 7-methylaminocoumarin (AMC).
The final concentration of the substrate in the assay was 50 μM, and the final concentration of the enzyme was 0.25 nM. Inhibitors were tested by serial dilution over an appropriate range to yield a dose response curve for determination of the inhibitors' IC50 value. The assay mixture was read every minute for 30 minutes in order to generate progress curves. The plates were read in a Spectramax m5 Multimode Plate Reader (Molecular Devices LLC, Sunnyvale, Calif.). Dose response curves were fit to Equation 1 below in which A is the maximum inhibition, B is the minimum inhibition, C is the IC50, and D is the Hill coefficient. Y=[(A−B)/(1+(X/C)^D)]+B (Equation 1)

This note sets out measurements from patent US11691962B2 (eXIthera Pharmaceuticals, Inc., priority 2018, dated 2023).

Where only a bound is given, the exact number is not on record here.

What is called IC50 is the concentration that gives 50% inhibition.

Sequence of Factor XIa (P03951 388-625): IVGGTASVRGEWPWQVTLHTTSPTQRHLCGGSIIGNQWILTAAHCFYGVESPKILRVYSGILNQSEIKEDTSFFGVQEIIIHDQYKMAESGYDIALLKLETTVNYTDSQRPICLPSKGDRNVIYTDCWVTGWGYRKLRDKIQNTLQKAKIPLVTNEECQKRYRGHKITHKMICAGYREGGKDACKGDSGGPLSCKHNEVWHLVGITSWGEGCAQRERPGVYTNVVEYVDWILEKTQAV
Sequence of Factor XIa (P03951 19-387 partner): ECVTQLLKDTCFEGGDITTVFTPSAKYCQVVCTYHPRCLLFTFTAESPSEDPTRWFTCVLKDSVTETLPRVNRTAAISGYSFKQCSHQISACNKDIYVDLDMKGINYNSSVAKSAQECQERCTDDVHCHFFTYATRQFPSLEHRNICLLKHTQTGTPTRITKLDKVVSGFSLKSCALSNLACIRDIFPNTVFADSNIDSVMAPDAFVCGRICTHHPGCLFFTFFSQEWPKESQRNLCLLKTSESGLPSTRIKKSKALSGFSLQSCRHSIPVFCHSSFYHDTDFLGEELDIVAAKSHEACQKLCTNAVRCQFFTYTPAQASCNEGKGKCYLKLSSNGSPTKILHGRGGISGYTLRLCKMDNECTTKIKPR

Consider `CN(C(=O)[C@@H]1[C@@H](Cc2ccnc(N)c2)C(=O)N1C(=O)NC(C1CCCCC1)C(F)(F)F)c1ccnn1C` (stereo in doubt) [Compound 1-6, (2S,3R)-3-((2-aminopyridin-4-yl)methyl)-N2-(1-methyl-1H-pyrazol-5-yl)-N1-((R)-1-cyclohexyl-2,2,2-trifluoroethyl)-N2-methyl-4-oxoazetidine-1,2-dicarboxamide], for which the half-inhibitory concentration (IC50) is 10 to 100 nM.
Then `Cc1cc(C[C@H]2C(=O)N(C(=O)NC(C3CCCCC3)C(F)(F)F)[C@@H]2C(=O)N(C)c2nccn2C)cc(N)n1` (stereo in doubt) [Compound 1-77, (2S,3R)-3-((2-amino-6-methylpyridin-4-yl)methyl)-N2-(1-methyl-1H-imidazol-2-yl)-N1-((R)-1-cyclohexyl-2,2,2-trifluoroethyl)-N2-methyl-4-oxoazetidine-1,2-dicarboxamide], with 10 to 100 nM; and `CC[C@@H](NC(=O)N1C(=O)[C@H](Cc2ccnc(N(C)C)c2)[C@H]1C(=O)N(C)c1cnn(C)c1)c1ccccc1` [Compound 1-5, (2S,3R)-3-((2-dimethylaminopyridin-4-yl)methyl)-N2-(1-methyl-1H-pyrazol-4-yl)-N1-((R)-1-phenylpropyl)-N2-methyl-4-oxoazetidine-1,2-dicarboxamide], with above 1000 nM; and `CC[C@H](c1cccc(Cl)c1)N(C)C(=O)N1C(=O)[C@H](Cc2ccnc(N)c2)[C@H]1C(=O)N(C)c1ccn(C)n1` [Compound 1-7, (2S,3R)-3-((2-aminopyridin-4-yl)methyl)-N2-(1-methyl-1H-pyrazol-3-yl)-N1-((R)-1-(3-chlorophenyl)propyl)-N1-methyl-N2-methyl-4-oxoazetidine-1,2-dicarboxamide], with 10 to 100 nM.
Then `CC[C@@H](NC(=O)N1C(=O)[C@H](Cc2ccnc(N)c2)[C@H]1C(=O)N(C)c1ccn(C)n1)c1cccc(C)c1` [Compound 1-14, (2S,3R)-3-((2-aminopyridin-4-yl)methyl)-N2-(1-methyl-1H-pyrazol-3-yl)-N1-((R)-1-(3-methylphenyl)propyl)-N2-methyl-4-oxoazetidine-1,2-dicarboxamide], with 10 to 100 nM; and `CC[C@@H](NC(=O)N1C(=O)[C@H](Cc2ccnc(N)c2)[C@H]1C(=O)N(C)c1ccn(C)n1)c1ccc(C)nc1` [Compound 1-20, (2S,3R)-3-((2-aminopyridin-4-yl)methyl)-N2-(1-methyl-1H-pyrazol-3-yl)-N1-((R)-1-(6-methylpyridin-3-yl)propyl)-N2-methyl-4-oxoazetidine-1,2-dicarboxamide], with below 10 nM; and `CC[C@@H](NC(=O)N1C(=O)[C@H](Cc2ccnc(N)c2)[C@H]1C(=O)N(C)c1ccsn1)c1ccccc1` [Compound 1-21, (2S,3R)-3-((2-aminopyridin-4-yl)methyl)-N2-(3-isothiazolyl)-N1-((R)-1-phenylpropyl)-N2-methyl-4-oxoazetidine-1,2-dicarboxamide], with 10 to 100 nM.
For `CC[C@@H](NC(=O)N1C(=O)[C@H](Cc2ccnc(NC(=O)OC(C)(C)C)c2)[C@H]1C(=O)N(C)c1cnn(C)c1)c1cccc(Cl)c1` [Compound 1-23, (2S,3R)-3-((2-(((tert-butoxy)carbonyl)amino)pyridin-4-yl)methyl)-N2-(1-methyl-1H-pyrazol-4-yl)-N1-((R)-1-(3-chlorophenyl)propyl)-N2-methyl-4-oxoazetidine-1,2-dicarboxamide], the IC50 is above 1000 nM.
Under `CC[C@@H](NC(=O)N1C(=O)[C@H](Cc2ccnc(N)c2)[C@H]1C(=O)N(C)c1cscn1)c1cccc(C)c1` [Compound 1-24, (2S,3R)-3-((2-aminopyridin-4-yl)methyl)-N2-(4-thiazolyl)-N1-((R)-1-(3-methylphenyl)propyl)-N2-methyl-4-oxoazetidine-1,2-dicarboxamide] stands below 10 nM; under `CN(C(=O)[C@@H]1[C@@H](Cc2ccnc(N)c2)C(=O)N1C(=O)NCc1cccc(Cl)c1)c1cnn(C)c1` [Compound 1-27, (2S,3R)-3-((2-aminopyridin-4-yl)methyl)-N2-(1-methyl-1H-pyrazol-4-yl)-N1-((3-chlorophenyl)methyl)-N2-methyl-4-oxoazetidine-1,2-dicarboxamide], 10 to 100 nM; under `CN(C(=O)[C@@H]1[C@@H](Cc2ccnc(N)c2)C(=O)N1C(=O)NCc1cccc(Cl)c1)c1cccs1` [Compound 1-29, (2S,3R)-3-((2-aminopyridin-4-yl)methyl)-N2-(thiophen-2-yl)-N1-((3-chlorophenyl)methyl)-N2-methyl-4-oxoazetidine-1,2-dicarboxamide], 10 to 100 nM.
Under `CN(C(=O)[C@@H]1[C@@H](Cc2ccnc(N)c2)C(=O)N1C(=O)N[C@@H](C1CC1)C(F)(F)F)c1ccn(C)n1` [Compound 1-30, (2S,3R)-3-((2-aminopyridin-4-yl)methyl)-N2-(1-methyl-1H-pyrazol-3-yl)-N1-((S)-1-cyclopropyl-2,2,2-trifluoroethyl)-N2-methyl-4-oxoazetidine-1,2-dicarboxamide] stands 10 to 100 nM; under `CN(C(=O)[C@@H]1[C@@H](Cc2ccnc(N)c2)C(=O)N1C(=O)NCc1cccc(F)c1)c1cn(C)cn1` [Compound 1-34, (2S,3R)-3-((2-aminopyridin-4-yl)methyl)-N2-(1-methyl-1H-imidazol-4-yl)-N1-((3-fluorophenyl)methyl)-N2-methyl-4-oxoazetidine-1,2-dicarboxamide], 100 to 1000 nM.
Then `CC[C@@H](NC(=O)N1C(=O)[C@H](Cc2ccnc(NC)c2)[C@H]1C(=O)N(C)c1ccnn1C)c1cccc(Cl)c1` [Compound 1-36, (2S,3R)-3-((2-methylaminopyridin-4-yl)methyl)-N2-(1-methyl-1H-pyrazol-5-yl)-N1-((R)-1-(3-chlorophenyl)propyl)-N2-methyl-4-oxoazetidine-1,2-dicarboxamide], with 10 to 100 nM; and `CCNc1cc(C[C@H]2C(=O)N(C(=O)N[C@H](CC)c3cccc(Cl)c3)[C@@H]2C(=O)N(C)c2ccn(C)n2)ccn1` [Compound 1-39, (2S,3R)-3-((2-ethylaminopyridin-4-yl)methyl)-N2-(1-methyl-1H-pyrazol-3-yl)-N1-((R)-1-(3-chlorophenyl)propyl)-N2-methyl-4-oxoazetidine-1,2-dicarboxamide], with 10 to 100 nM; and `CC[C@@H](NC(=O)N1C(=O)[C@H](Cc2ccnc(NC)c2)[C@H]1C(=O)N(C)c1cccs1)c1ccccc1` [Compound 1-40, (2S,3R)-3-((2-methylaminopyridin-4-yl)methyl)-N2-(thiophen-2-yl)-N1-((R)-1-phenylpropyl)-N2-methyl-4-oxoazetidine-1,2-dicarboxamide], with 10 to 100 nM.
With `CC[C@@H](NC(=O)N1C(=O)[C@H](Cc2ccnc(N)c2)[C@H]1C(=O)N(C)c1ccn(C)n1)c1ccn(C)n1` [Compound 1-42, (2S,3R)-3-((2-aminopyridin-4-yl)methyl)-N2-(1-methyl-1H-pyrazol-3-yl)-N1-((R)-1-(1-methyl-1H-pyrazol-3-yl)propyl)-N2-methyl-4-oxoazetidine-1,2-dicarboxamide], the IC50 lay within 100 to 1000 nM.
Then `CC[C@@H](NC(=O)N1C(=O)[C@H](Cc2ccnc(N)c2)[C@H]1C(=O)N(C)c1cccs1)c1ccn(C)n1` [Compound 1-49, (2S,3R)-3-((2-aminopyridin-4-yl)methyl)-N2-(thiophen-2-yl)-N1-((R)-1-(1-methyl-1H-pyrazol-3-yl)propyl)-N2-methyl-4-oxoazetidine-1,2-dicarboxamide], with 10 to 100 nM; and `CC[C@@H](NC(=O)N1C(=O)[C@H](Cc2ccnc(N)c2)[C@H]1C(=O)N(C)c1ccn(C)n1)c1cccs1` [Compound 1-53, (2S,3R)-3-((2-aminopyridin-4-yl)methyl)-N2-(1-methyl-1H-pyrazol-3-yl)-N1-((R)-1-(thiophen-2-yl)propyl)-N2-methyl-4-oxoazetidine-1,2-dicarboxamide], with 10 to 100 nM.
